Marks after values point to notes of the source that are not given here.
Legend:
nucleolin = conditions: cited from earlier work
Source text: HB-19 presents pentavalently the tripeptide Kψ(CH2N)PR in which the reduced peptide bond provides high stability against serum proteases (Figure 1). HB-19 forms a stable complex with the cell-surface expressed nucleolin and is internalized by an active process. This le ... || The interaction of HB-19 with surface nucleolin was investigated using human breast cancer MDA-MB-231 tumor cells and human umbilical vein endothelial cells (HUVECs). […] Similarly, HB-19/Btn binds and forms a stable complex with surface nucleolin in a dose-dependent manner in both types of cell ... || Previously, guanosine-rich phosphodiester oligonucleotides (referred to as GROs) and endostatin have been reported to exert antitumoral and antiangiogenic activity, respectively, through interaction with surface nucleolin [21], [41], [42]. […] At 20°C, GRO ... || (+ 1 further places)

[1] = system: cells (surface nucleolin); conditions: cited from earlier work
Source text: The importance of cell-surface nucleolin in cancer biology is highlighted by many studies showing that ligands of nucleolin play critical role in tumorigenesis and angiogenesis, [16]. For example, among surface nucleolin binding growth factors: midkine and PTN can transform cells, whereas on endothelial cells they exert both mitogenic and angiogenic effect. Laminin-1 that induces differentiation of cells binds surface nucleolin, while urokinase that is implicated in mechanisms regulating pericellular proteolysis, cell-surface adhesion, and mitogenesis binds and is co-internaliz ... || Previously, guanosine-rich phosphodiester oligonucleotides (referred to as GROs) and endostatin have been reported to exert antitumoral and antiangiogenic activity, respectively, through interaction with surface nucleolin [21], [41], [42]. […] At 20°C, GRO ...

nuclear nucleolin = conditions: cited from earlier work
Method: (§1) Previously, guanosine-rich phosphodiester oligonucleotides (referred to as GROs) and endostatin have been reported to exert antitumoral and antiangiogenic activity, respectively, through interaction with surface nucleolin [21], [41], [42]. […] At 20°C, GRO ...

tumor cells = conditions: cited from earlier work
Method: as §1

[2] = system: MDA-MB-435 tumor-cell xenografts; experiment: MDA-MB-435 xenograft in nude mice; format: in vivo, human; conditions: 5-FU 40 mg/kg, intraperitoneal, 3 times/week, 8 weeks, n = 10
Method: Figure 8 HB-19 inhibits tumor growth in the nude mice. (A) HB-19 inhibits the growth of MDA-MB-231 tumor-cell xenografts. Cells (2×10^6) were injected subcutaneously into the right flank of female nude mice. Two weeks later, mice with a palpable tumor of approximately 40 mm^3 in volume were randomly separated into three groups (n = 5) and were given peritumoral injections 3 times/week of 0.1 ml PBS alone (Control), HB-19 (5 mg/kg), or Tamoxifen (Tmx) 10 mg/kg) for 6 weeks. (B) HB-19 inhibits the growth of MDA-MB-435 tumor-cell xenografts. Cells (1×10^6) were injected in the mammary fat pad of female nude mice. Two weeks later, mice with a palpable tumor were randomly separated into three groups (n = 10) and were given intraperitoneal injections 3 times/week of 0.1 ml PBS alone (Control), HB-19 (5 mg/kg), or 5-fluouracil (5-FU, 40 mg/kg) for 8 weeks. At the end of each experiment (in A and B), mice were sacrificed and the tumors were excised and weighed. The results are presented as the mean weight ±standard deviation (±S.D.) obtained from the number of mice in each group. (C, D) Inhibition of tumor development in mice treated by intraperitoneal (i.p.) and subcutaneous (s.c.) administration of HB-19. MDA-MB-231 tumor bearing mice in three groups (n = 10) were treated with HB-19 (10 mg/kg) by i.p. or s.c. injections, 3 times/week for 28 days. […]

[3] = system: CD31 endothelial marker in tumors; experiment: Tumor vascularization, CD31 immunohistochemistry; format: in vivo, mouse; conditions: CD31 staining; HB-19 5 mg/kg or 5-FU 40 mg/kg, intraperitoneal, 8 weeks; compared to untreated tumors
Method: Figure 9 Reduced density of blood vessels in HB-19 treated tumor-bearing mice. Sections of tumors recovered from mice, untreated control and treated with either HB-19 or 5-FU (experiment described in Figure 8B) were stained with antibodies against the CD31 endothelial marker and analyzed by fluorescence microscopy. […] Angiogenesis was quantified by image analysis of CD31-labeled endothelial cells.
Immediately after surgical resection, tumors, were frozen in liquid nitrogen and fixed for 20 min in acetone at 4°C or fixed with 4% PFA for paraffin inclusion. The sections of 8 µm were re-hydrated and saturated in PBS containing 1% BSA and 2% normal goat serum. To visualize tumor endothelial cells, sections were incubated with a Rat anti-mouse CD31 monoclonal antibody (1∶50) in saturation buffer 1 hour at room temperature. After two washes in PBS, sections were incubated for 1 hour at room temperature with biotinylated goat anti-Rat IgG (1∶1000 dilution; Chemicon International Inc., Temecula, CA) in saturation buffer, followed by three washes in PBS and incubation with the avidin-biotinylated-alkaline phosphatase complex (Vector Laboratories). […] Angiogenesis was quantified by Image analysis of CD31-labeled endothelial cells. The EC density in each field was expressed as the ratio of EC area/total area examined ×100 (%). […]

[4] = Blood cell count in tumor bearing mice; format: in vivo, mouse; conditions: 3 times/week, 8 weeks
Method: (§2) Figure 8 HB-19 inhibits tumor growth in the nude mice. (A) HB-19 inhibits the growth of MDA-MB-231 tumor-cell xenografts. Cells (2×10^6) were injected subcutaneously into the right flank of female nude mice. Two weeks later, mice with a palpable tumor of approximately 40 mm^3 in volume were randomly separated into three groups (n = 5) and were given peritumoral injections 3 times/week of 0.1 ml PBS alone (Control), HB-19 (5 mg/kg), or Tamoxifen (Tmx) 10 mg/kg) for 6 weeks. (B) HB-19 inhibits the growth of MDA-MB-435 tumor-cell xenografts. Cells (1×10^6) were injected in the mammary fat pad of female nude mice. Two weeks later, mice with a palpable tumor were randomly separated into three groups (n = 10) and were given intraperitoneal injections 3 times/week of 0.1 ml PBS alone (Control), HB-19 (5 mg/kg), or 5-fluouracil (5-FU, 40 mg/kg) for 8 weeks. At the end of each experiment (in A and B), mice were sacrificed and the tumors were excised and weighed. The results are presented as the mean weight ±standard deviation (±S.D.) obtained from the number of mice in each group. (C, D) Inhibition of tumor development in mice treated by intraperitoneal (i.p.) and subcutaneous (s.c.) administration of HB-19. MDA-MB-231 tumor bearing mice in three groups (n = 10) were treated with HB-19 (10 mg/kg) by i.p. or s.c. injections, 3 times/week for 28 days. […] Statistical significance: *p<0.05, **p<0.01, ***p<0.001.
Blood samples were collected by cardiac puncture. Hematocrit level, white blood cells and platelets count were determined individually in whole blood anticoagulated with EDTA (1 mM) at room temperature. Blood cell count was analyzed with an automated flow cytometric blood cell counter (Cell-Dyn 3500, Abbott Laboratories, Rungis, France).

surface nucleolin [5] = experiment: Complex of HB-19/Btn with surface nucleolin, HUVECs, avidin-agarose and immunoblot; format: binding, human; conditions: 45 min, 20°C, 0-12 µM HB-19/Btn
Method: Figure 3 Specific binding and entry of HB-19 in endothelial cells. (A) HB-19/Btn forms a stable complex with nucleolin expressed on the surface of HUVECs. Cells were incubated (45 min, 20°C) with 0, 1, 2, 4, 8 and 12 µM of HB-19/Btn before preparation of surface/cytoplasmic and nuclear extracts and recovery of surface nucleolin from the surface/cytoplasmic extracts as in Figure 2A. Material extracted from 2×10^7 and 2×10^6 cells was analyzed in panels Surface and Surface/Cytoplasm or Nucleus, respectively. Immunoblotting was with the anti-nucleolin mAb D3. (B) The specific binding of HB-19/Btn to HUVECs. The binding of 1 µM HB-19/Btn was studied at 4 °C by FACScan analysis. To show the specificity of binding, the reaction was carried out in the absence or presence of 50 µM HB-19, F3, or 9Arg peptides. The ordinate gives the relative cell number, whereas the abscissa gives the relative fluorescence intensity. (C) HB-19 entry in HUVECs. Cells were incubated with 5 µM of HB-19/Btn (1 hour, 37°C) before fixation in PFA (for surface binding) or PFA-Triton (for entry), respectively. […]
Cells were passaged in DMEM culture medium containing 10% FCS in 75 cm^2 flasks. […] The purified surface nucleolin was eluted in the electrophoresis sample buffer containing SDS and analyzed by SDS–polyacrylamide gel electrophoresis (PAGE).

surface nucleolin [6] = experiment: Complex of HB-19/Btn with surface nucleolin, MDA-MB-231 cells, avidin-agarose and immunoblot; format: binding, human; conditions: 45 min, 20°C, 0-12 µM HB-19/Btn
Method: Figure 2 HB-19 binds nucleolin expressed on the surface of tumor cells and causes reduction of cytoplasmic/surface but not nuclear nucleolin. (A) HB-19/Btn forms a stable complex with nucleolin expressed on the surface of cells. MDA-MB-231 cells were incubated (45 min, 20°C) with 0, 1, 2, 4, 8 and 12 µM of HB-19/Btn before preparation of surface/cytoplasmic (i.e., nucleus-free) and nuclear extracts, [28]. Samples of surface nucleolin (purified using surface/cytoplasmic extracts from 2×10^7 cells) and crude surface/cytoplasmic and nuclear extracts (from 2×10^6 cells) were analyzed by immunoblotting for the detection of nucleolin using mAb D3. (B) Specific reduction of surface/cytoplasmic nucleolin in HB-19 treated cells. […] Material from 2×10^6 cells (Untreated or HB-19 treated cells as indicated − or + signs, respectively) was analyzed by immunoblotting for the detection of nucleolin. […] The intensity of nucleolin protein bands quantified by using the NIH image software indicated 75% and 93% reduction of surface/cytoplasmic nucleolin in HB-19 treated cells at 24 and 48 hours, respectively, compared to the corresponding untreated cells. […] MDA-MB-231 cells cultured in the absence (Control Cells) or presence of 10 µM of HB-19 for 48 hours (HB-19 Treated Cells) were fixed in PFA-Triton and processed for fluorescence microscopy. […]

[7] = system: MDA-MB-231 tumor-cell xenografts; experiment: MDA-MB-231 xenograft in nude mice; format: in vivo, human; conditions: tamoxifen 10 mg/kg, peritumoral, 3 times/week, 6 weeks, n = 5
Method: as §2

Compound: endostatin
- heparan sulfate proteoglycan requirement of binding to surface nucleolin (nucleolin): endostatin but not HB-19 binding to surface nucleolin requires heparan sulfate proteoglycans
- internalization [1]: binds nucleolin on the surface of endothelial cells before translocation to the nucleus
- phosphorylation of nuclear nucleolin (nuclear nucleolin): inhibits phosphorylation of nuclear nucleolin
- direct effect on tumor cell growth (tumor cells): does not directly affect tumor cell growth

Compound: O=c1[nH]cc(F)c(=O)[nH]1 [5-FU, 5-fluouracil]
- inhibition of tumor growth [2]: 66%
- inhibition of tumor vascularization [3]: significantly inhibited tumor vascularization
- leucopenia ([4]; 5-FU 40 mg/kg, intraperitoneal): toxic causing a significant degree of leucopenia
- reduction in the number of lymphocytes ([4]; 5-FU 40 mg/kg, intraperitoneal): 55%
- Eosinophils ([4]; HB-19 5 mg/kg or 5-FU 40 mg/kg i.p., mean ± SD, n = 10, untreated 0.01±0.02): 0.05±0.04 ×10^3/µl
- Basophils ([4]; HB-19 5 mg/kg or 5-FU 40 mg/kg i.p., mean ± SD, n = 10, untreated 0.10±0.06): 0.10±0.04 ×10^3/µl
- Monocytes ([4]; HB-19 5 mg/kg or 5-FU 40 mg/kg i.p., mean ± SD, n = 10, untreated 0.20±0.09): 0.22±0.09 ×10^3/µl
- Neutrophils ([4]; HB-19 5 mg/kg or 5-FU 40 mg/kg i.p., mean ± SD, n = 10, untreated 0.89±0.39, 5-FU p<0.05): 0.53±0.15 * ×10^3/µl
- Lymphocytes ([4]; HB-19 5 mg/kg or 5-FU 40 mg/kg i.p., mean ± SD, n = 10, untreated 1.84±0.78, 5-FU p<0.01): 0.83±0.22 ** ×10^3/µl
- Leukocytes ([4]; HB-19 5 mg/kg or 5-FU 40 mg/kg i.p., mean ± SD, n = 10, untreated 3.05±1.29, 5-FU p<0.05): 1.73±0.37 * ×10^3/µl
- Erythrocytes ([4]; HB-19 5 mg/kg or 5-FU 40 mg/kg i.p., mean ± SD, n = 10, untreated 8.73±0.26, 5-FU p<0.0001): 7.60±0.30*** ×10^6/µl
- Platelets ([4]; HB-19 5 mg/kg or 5-FU 40 mg/kg i.p., mean ± SD, n = 10, untreated 1041±91): 1042±59 ×10^3/µl

Compound: H2NLys-Lys-Lys-Gly-Pro-Lys-Glu-Lys-βAla-Lys(Btn)-βAlaCONH2 [HB-19/Btn, biotinylated HB-19 for recovery of surface nucleolin]
- concentration of maximum binding to surface nucleolin (surface nucleolin [5]): 8 to 12 µM
- concentration of maximum binding to surface nucleolin (surface nucleolin [6]): 8 to 12 µM

Compound: CC/C(=C(\c1ccccc1)c1ccc(OCCN(C)C)cc1)c1ccccc1 [tamoxifen, reference compound]
- reduction of tumor mass [7]: 80%
